Measured values: patent US9809521B2, “Cannabidinoid derivatives” (priority 2011, dated 2017)

Columns and labels:
[1] = target: CB2 receptors (Homo sapiens, UniProt P34972); test: Selectivity screen for CB2 receptors; format: binding
[2] = system: U87 cells; test: MTT cell proliferation assay; conditions: Homo sapiens, U-87 MG, 72 h, read-out: CBD IC50, U87
[3] = system: U251 cells; test: Organotypic brain slice invasion assay; format: cell-based, human; conditions: 1 μM
Procedure: Effects of CBD on GBM cell invasion in In Vivo Studies. To determine whether CBD could inhibit GBM cell invasion through intact brain tissue, an organotypic brain slice assay was utilized. GFP-labeled U251 cells were treated for two days in culture with vehicle or CBD. On the third day, the cells were harvested and transferred to the top of a 0.5 mm coronal rat brain slice obtain from a postnatal day 3 rat pup. A porous cell culture insert containing the slice was suspended for three days in a well containing conditioned media with either vehicle or 1 μM CBD. […] GBM tumors were generated in nu/nu mice by intracranial injection of U251 GBM cells. […] CBD produced a robust reduction of GBM progression, decreasing the tumor area by 95% (FIG. 14, panels B and C). […] This occurred concomitantly with a decrease in tumor cell proliferation (the number of Ki67-positive nuclei was decreased by 87%±9 (p<0.0001, Student's t-test)) (FIG. 14, panel D).

[4] = system: Id-1; test: Immunohistochemical detection of Id-1 in lung metastatic foci; format: in vivo, mouse
Procedure: (§1) CBD down-regulates Id-1 expression and breast cancer cell proliferation in lung metastatic foci. […] Lung tissue from mice treated with vehicle or CBD (1 mg/kg) were evaluated for Id-1 expression and Ki67, a marker of cellular proliferation (FIG. 5, panel A).
(§2) Immunohistochemical detection of Id-1 and Ki67 was performed in lung tissues of vehicle and CBD treated mice. Nuclei were stained with hematoxylin. […] The intensity of the immunohistochemical (IHC) detection of Id-1 was then graded from 0 to 4.

[5] = system: pERK, JNK, p38 MAPK; test: Western analysis of MAPK activity in U251 cells
[6] = system: U251 GBM cells; test: Viability assay, combination with Temozolomide; format: cell-based, human
Procedure: Viability Assays using drug combinations and statistical analysis: Multiple viability assays in a 96 well format were run for each compound and the average percent inhibition of cell viability was calculated and transformed to fraction affected (Fa) i.e., percent inhibitory effect. Additional CI values and a dose reduction index (DRI) were also calculated using Compusyn software. After determining the (IC50/Fa0.5) values of the drugs individually, components were then combined at the following concentration ranges: controls, 0.125×IC50, 0.25×IC50, 0.5×IC50 and a combination index was calculated where CI<1, =1, and >1 indicate synergism, additive effect, and antagonism, respectively.
Cell viability studies with U251 GBM cells using CBD in combination with Temozolomide. […] The concentration response curves were first generated for temozolomide, CBD alone, and a combination of CBD and temozolomide (FIG. 16, panel A). The inhibitory values from the concentration response curves were then used to calculate combination index (CI) values at multiple combination ratios (FIG. 16, panel B). From which, the data was also used to calculate (i) IC50 values, the slope of the curve (m) and a goodness of fit value (r).

[7] = system: Id-1 gene; test: PCR of Id-1 mRNA expression in MDA-MB231 cells; format: cell-based, human
Procedure: Polymerase Chain Reaction: Total cellular RNA was isolated from breast cancer cells treated with vehicle control or with CBD. Transcripts for Id-1 and for β-actin were reverse transcribed using SuperscriptII Reverse TranscriptaseII (Gibco-BRL), and polymerase chain reaction performed. The 5′ and 3′ PCR primers were […] (SEQ ID NO:1) and […] (SEQ ID NO:2) for Id-1; and […] (SEQ ID NO:3) and […] (SEQ ID NO:4) for β-actin. PCR was performed in buffer containing 1 μM of each of the 5′ and 3′ PCR primer and 0.5 U of Taq polymerase using 25 cycles for amplification of Id-1 and β-actin cDNAs. The cycle conditions were 45 sec denaturation at 94° C., 45 sec annealing at 55° C., and 1 min extension at 72° C.
Gene Expression Assays looking at Id-1 gene epression with CBD in MDA-MB231 cells. […] To determine if this effect was due to the inhibition of transcription, a construct was used that contained the Id-1 promoter fused to a luciferase reporter in a PGL-3 basic vector. This construct was transiently transfected into MDA-MB231 cells. Twenty-four hours after transfection, MDA-MB231-Id-1-luc cells were treated with CBD for 2 or 3 days and luciferase activity was measured (FIG. 3, panel B and panel C). […] These findings correlated to the data obtained when the expression of the Id-1 protein was assessed by Western analysis.

[8] = system: 4T1 cells; test: In-vivo primary tumor proliferation (4T1 mammary fat pad, flank of Nude mice); set-up: species or system mouse; conditions: daily treatment from one week post injection
Procedure: In-vivo studies of breast and brain tumor formation with CBD. The compounds of the disclosure were effective in inhibiting tumor formation in an in-vivo model. Breast cancer 4T1 cells were subcutaneously injected into the mammary fat pad of BALBc mice (FIG. 8, Panel A), or into the flank of Nude mice (FIG. 8, Panel B). After one week post injection, the mice were treated daily (systemic in A, and peritumoral in B) with CBD […]. Primary tumor volume was then calculated by measuring the perpendicular largest diameters of the tumor with a caliper and using the formula (L×W^2/2).

[9] = system: Id-1 promoter; test: Id-1 promoter luciferase reporter assay in MDA-MB231 cells; format: cell-based, human; conditions: 1.5 μM, 2 or 3 days
Procedure: Id-1 promoter reporter assays: A SacI-BspHI fragment of 2.2 kb corresponding to the 5′ upstream region of human Id-1 gene and driving a luciferase gene in a PGL-3 vector (Promega) was used (Id-1-sbsluc). Cells were plated in six well dishes in medium supplemented with 10% FBS and 5 μg/ml insulin. After 24 hours, cells were cotransfected with 6 μg of luciferase reporter plasmids and 2 μg of pCMVβ (Clontech) using Superfect reagent (Qiagen). pCMVβ contained bacterial β-galactosidase and served to control for variation in transfection efficiency. 3 hours after transfection, the cells were rinsed twice with PBS and were cultured in the absence or presence of CBD for 48-72 h. Cell pellets were lysed in 80 μl of reporter lysis buffer (Promega) for 10 min at room temperature. Lysed cells were centrifuged and supernatants harvested. Luciferase and β-gal assays were performed using Luciferase Assay System (Promega), β-Gal Assay Kit (Clontech) and a 2010 luminometer (Pharmingen).
Gene Expression Assays looking at Id-1 gene epression with CBD in MDA-MB231 cells. […] Twenty-four hours after transfection, MDA-MB231-Id-1-luc cells were treated with CBD for 2 or 3 days and luciferase activity was measured (FIG. 3, panel B and panel C). […] These findings correlated to the data obtained when the expression of the Id-1 protein was assessed by Western analysis.

[10] = system: Ki67; test: Immunohistochemical detection of Ki67 in lung metastatic foci; format: in vivo, mouse; conditions: 1 mg/kg
Procedure: as §1, §2

CB2 receptors, sequence (P34972 whole entry): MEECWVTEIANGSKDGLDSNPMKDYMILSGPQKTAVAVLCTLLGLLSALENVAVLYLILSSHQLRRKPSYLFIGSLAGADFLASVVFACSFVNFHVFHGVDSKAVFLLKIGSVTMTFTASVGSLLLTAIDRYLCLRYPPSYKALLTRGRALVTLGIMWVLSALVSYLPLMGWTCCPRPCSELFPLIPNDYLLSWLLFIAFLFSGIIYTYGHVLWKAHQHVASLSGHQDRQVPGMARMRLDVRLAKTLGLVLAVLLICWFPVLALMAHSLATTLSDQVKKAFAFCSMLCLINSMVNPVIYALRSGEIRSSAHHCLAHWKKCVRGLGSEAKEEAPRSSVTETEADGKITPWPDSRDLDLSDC

| Compound | selectivity CB2 receptors over CB1 receptors [1] | IC50 [2] [µM] | invasion of U251 cells through the organotypic brain slice [3] | lung foci strongly positive for Id-1 ([4]; 1 mg/kg) [%] | intensity of IHC detection of Id-1, grade 0 to 4, average ([4]; mouse, in vivo) | p-ERK, higher concentrations alone ([5]; 2.5 μM Δ^9-THC, 2.0 μM CBD, three days) | pERK ([5]; THC 1.7 μM, CBD 0.4 μM, two days) | interaction with Temozolomide (combination index) [6] | Id-1 mRNA expression [7] | tumor proliferation in-vivo (primary tumor volume) [8] | luciferase activity (Id-1 promoter) [9] | Ki67 in metastatic foci [10] |
| --- | --- | --- | --- | --- | --- | --- | --- | --- | --- | --- | --- | --- |
| CCCCC(C)(C)c1cc(O)c(C2CCC(C3CCCCC3)CC2)c(O)c1 (stereo not drawn) [Compound O-1663] | selective for targeting CB2 receptors over CB1 receptors | – | – | – | – | – | – | – | – | – | – | – |
| C=C(C)[C@@H]1CCC(C)=C[C@H]1c1c(O)cc(CCCCC)cc1O [CBD, cannabidiol] | – | 0.7 | highly effective at inhibiting invasion | 5.6 | around 1 | small inhibition of p-ERK | no changes in pERK were observed | acts synergistically with Temozolomide | significantly reduced | potent inhibitor of tumor proliferation | significant inhibition of luciferase activity | significant down-regulation of Ki67 |
